Values quoted from earlier work in patent US20260146034A1, “1H-CYCLOPENTA[B]BENZOFURAN DERIVATIVES FOR THE PREVENTION AND TREATMENT OF VIRUS DISEASES” (priority 2022, published 2026).

Key:
[1] = system: RNA helicase enzyme elF4A; details: previous studies
[2] = system: corona viruses, SARS and MERS virus
[3] = system: SARS-COV-2; details: eFFECTOR's Therapeutic, Apr. 30, 2020
[4] = system: coronavirus; details: J. Virology, 2011, 6381

Silvesterol
inhibition of the RNA helicase enzyme elF4A [1]: potent and selective inhibitor | antiviral activity against corona viruses, SARS and MERS virus [2]: broadspectrum antiviral activity

COc1cc2c(c(OC)n1)[C@]1(O)[C@H](O)[C@H](CN(C)C)[C@@H](c3ccccc3)[C@]1(c1ccc(C#N)cc1)O2 [Zotatifin]
anti viral activity against SARS-COV-2 [3]: shows anti viral activity

4E2RCat
blocking coronavirus replication [4]: capable of blocking coronavirus replication
